In test [1] the target is T1, Ba/F3 cells overexpressing the p210^Bcr-Abl-T315I theramutein (Homo sapiens, UniProt P00519, T315I, cells depend on it).
T1 construct: fused on or other part: P11274 (Breakpoint cluster region protein)
Nature of the test: phenoresponse-based cellular assay (cell count/viability), Ba/F3 T315I test cells. On the set-up: species or system murine. The conditions noted are these: for GI50: read-out: T315I (IC50 activity category, growth inhibition by 50%), Ba/F3 T315I cell line.

Test [2] concerns P210 T315I mutant kinase domain (120 Kd). The test is described as follows: cell-free purified protein kinase autophosphorylation assay, T315I kinase domain. In kind it is biochemical, human. The conditions noted are these: 20 μM cell-free, FIGS. 17 and 18. The protocol: Each of the compounds was also tested in a standard cell free protein kinase autophosphorylation assay at a concentration of 20 μM as shown in FIG. 18.

In the case of `O=C(Nc1cccc(C(F)(F)F)c1)c1cc(Cl)c(O)c(/C=N\Nc2ncc(F)c(N3CCOCC3)n2)c1`, in test [1], the GI50 was less than 1 µM.

Turning to `Fc1cnc(N/N=C/c2ccc(Nc3ccc(-c4ccccn4)c(Cl)c3)cn2)nc1N1CCOCC1`, in test [1], the GI50 was less than 1 µM.

As for `Cc1ccccc1/C=N/Nc1ncc(F)c(N2CCOCC2)n1`, in test [1], the GI50 is greater than 10 µM.

On to `CN(C)c1cc(O)cc(Nc2ccc(/C=N/Nc3ncc(F)c(N4CCOCC4)n3)nc2)c1`, for which the GI50 in test [1] was less than 1 µM.

Regarding `Oc1cccc(Nc2cccc(Nc3ccc(/C=N/Nc4ncc(F)c(N5CCOCC5)n4)nc3)c2)c1`, the GI50 in test [1] was less than 1 µM.

As to `Oc1c(Cl)cc(Br)cc1/C=N\Nc1ncc(F)c(N2CCOCC2)n1` [Example C2], the “concentration showing the largest specificity gap within the dose-response series” value in test [1] (T315I vs control Ba/F3 cells, FIG. 1) came out at 500 nM.

`Fc1cnc(N/N=C/c2ccc(-c3cccc(C(F)(F)F)c3)cn2)nc1N1CCOCC1`: in test [1], the GI50 is less than 1 µM.

`Fc1cnc(N/N=C/c2ccc(Nc3ccc(N4CCOCC4)cc3)cn2)nc1N1CCOCC1`: the GI50 in test [1] was less than 1 µM.

Regarding `Oc1ccccc1/C=N/Nc1ncc(F)c(N2CCOCC2)n1`, in test [1], the GI50 was less than 10 µM.

For the compound `Cc1cc(Nc2ccc(/C=N/Nc3ncc(F)c(N4CCOCC4)n3)nc2)cc(N2CCNCC2)c1`, the GI50 in test [1] is less than 1 µM.

With `O=C(Nc1cccc(C(F)(F)F)c1)c1cccc(/C=N/Nc2ncc(F)c(N3CCOCC3)n2)n1` [Example C2-122], in test [1] (FIG. 17), the “relative potency in the phenoresponse-based assay” value is listed as “less potent than several of the other compounds tested”. The “relative potency, cell-free assay vs phenoresponse-based cellular assay” value in test [2] is on record as “more potent in the cell-free assay than in the phenoresponse-based cellular system”.

Take `Cc1cc(Nc2cccc(C(F)(F)F)c2)ccc1/C=N/Nc1ncc(F)c(N2CCOCC2)n1`: the GI50 in test [1] was greater than 10 µM.

Take `Cc1cccc(Cl)c1NC(=O)C/C=N/Nc1ncc(F)c(N2CCOCC2)n1`: the GI50 in test [1] was greater than 10 µM.

Take `O=C(Nc1cccc(C(F)(F)F)c1)c1cccc(/C=N/Nc2ncc(F)c(N3CCOCC3)n2)n1` [drawing 209]: the GI50 in test [1] is greater than 10 µM.

As to `Fc1cnc(N/N=C/c2ccc(Nc3cccc(C(F)(F)F)c3)cn2)nc1-c1cncc(-c2ccccc2)c1`, the GI50 in test [1] was less than 1 µM.

As to `Fc1cnc(N/N=C/c2ccc(Nc3cccc(-n4ccnc4)c3)cn2)nc1N1CCOCC1`, the GI50 in test [1] was less than 1 µM.

For `Cc1ccc(/C=N/Nc2ncc(F)c(N3CCOCC3)n2)cc1`, the GI50 in test [1] was greater than 10 µM.

In the case of `O=C(Nc1cccc(C(F)(F)F)c1)c1ccc(/C=N/Nc2ncc(F)c(N3CCOCC3)n2)nc1`, the GI50 in test [1] was less than 1 µM.

As for `Fc1cnc(N/N=C/c2ccccc2)nc1N1CCOCC1`, the GI50 in test [1] was greater than 10 µM.

On to `O=C(NNc1ncc(F)c(N2CCOCC2)n1)c1ccc(Nc2cccc(C(F)(F)F)c2)cn1`, for which the GI50 in test [1] was less than 1 µM.

As for `CC(C(=O)O)c1ccc(Nc2ccc(/C=N/Nc3ncc(F)c(N4CCOCC4)n3)nc2)cc1` (stereo not shown), the GI50 in test [1] was greater than 10 µM.

`Fc1cnc(N/N=C/c2ccc(Nc3cccc(C(F)(F)F)c3)cn2)nc1-c1cncc(C2CC2)c1`: the GI50 in test [1] is less than 10 µM.

On to `Oc1ccc(Br)cc1/C=N/Nc1ncc(F)c(N2CCOCC2)n1`, for which, in test [1], the GI50 was less than 1 µM.

`Fc1cnc(N/N=C/c2ccccn2)nc1N1CCOCC1`: the GI50 in test [1] is less than 1 µM.

These data come from patent publication US20070111199A1, “Compounds and method of identifying, synthesizing, optimizing and profiling protein modulators” (priority 2005, published 2007).
